Consider one compound from paper PMC9266914, “Broad Spectrum Functional Activity of Structurally Related Monoanionic Au(III) Bis(Dithiolene) Complexes” (International Journal of Molecular Sciences, 2022).

One data set can be described thus: Cyclic voltammetry. In kind it is physicochemical. To be noted: CH2Cl2, NBu4PF6. An excerpt:
The redox properties of the various gold(III) bis(dithiolene) and bis(diselenolene) complexes were investigated by cyclic voltammetry using the same conditions, dichloromethane solutions and NBu4PF6 as supporting electrolyte. Under these conditions, the nature of the counter-ion, Ph4P^+ or Et4N^+, had no influence on the redox properties observed, due to ion exchange with the Bu4N^+ of the supporting electrolyte. Thus, only the result of one monoanion is included in Table 1, even if the two salts were analyzed. For all the investigated monoanionic bis(dithiolene) complexes, three redox processes are observed on the cyclic voltammograms. On the anodic scan, the two oxidation waves correspond to the oxidation of the monoanionic species into the neutral and to the monocationic complex. Most of these complexes had the tendency to deposit on the electrode once oxidized and frequently a strong desorption peak was observed on the reversible scan. This phenomenon occurs essentially for the complex with an exocyclic sulfur atom, [AuSR(=S)]^−1. On the cathodic scan, an irreversible process associated with the reduction in the monoanion into the dianion occurs (Scheme 2). […] The presence of oxygen instead of sulfur makes the oxidation of the monoanionic into the neutral species easier. On the other hand, the presence of electron-withdrawing substituents such as =C(CN)2 induces an anodic shift of the oxidation potentials by 300 mV, compared with the =O derivative, leading to a monoanion which is more difficult to oxidize than the other complexes of the series. […] Indeed, the potential difference between the second and the first oxidation potentials amounts to 470 mV and 410 mV for the =O and the =C(CN)2 derivatives, respectively, while for the =S analogues this value is smaller (170 mV). […] For comparison, we also investigated the redox behavior of Auranofin using the same experimental conditions in CH2Cl2 in the presence of NBu4PF6 as a supporting electrolyte. Using these conditions, upon anodic scan only one irreversible oxidation process is observed at 1.42 V vs. SCE. Therefore, all these monoanionic gold bis(dithiolene) and bis(diselenolene) complexes are easier to oxidize than Auranofin.
All reagents and materials from commercial sources were used without further purification. NMR spectra were recorded at room temperature using CDCl3 unless otherwise stated (Figures S7–S15). Chemical shifts are reported in ppm and ^1H NMR spectra were referenced to residual CHCl3 (7.26 ppm) and ^13C NMR spectra were referenced to CHCl3 (77.2 ppm). Mass spectra were recorded with an Agilent 6510 instrument for organics compounds and with a Thermo-Fisher Q-Exactive instrument for complexes by the Center Régional de Mesures Physiques de l’Ouest, Rennes. Cyclic voltammograms (CV)s were carried out on a 10^−3 M solution of complex in CH2Cl2-[NBu4] [PF6] 0.1 M. CVs were recorded on a Biologic SP-50 instruments at 0.1 Vs^−1 on a platinum disk electrode. Potentials were measured versus KCl Saturated Calomel Electrode (SCE). Column chromatography was performed using silica gel Merck 60 (70–260 mesh). The solvents were purified and dried by standard methods. The proligand 2-SEt(=C(CN2)), [72] and complexes [N][AuSMe(=S)], [73] [N][AuSEt(=S)], [74] [P][AuSEt(=O)], [75] [N][AuSeEt(=S)] [75] and [P][AuSPr(=S)] [76] were synthesized according to the previously reported procedure.

Data set [1] deals with T1, thioredoxin reductase (TrxR) (Rattus norvegicus, UniProt O89049).
T1 construct: purchased Sigma-Aldrich
T1 sequence (O89049 1-499): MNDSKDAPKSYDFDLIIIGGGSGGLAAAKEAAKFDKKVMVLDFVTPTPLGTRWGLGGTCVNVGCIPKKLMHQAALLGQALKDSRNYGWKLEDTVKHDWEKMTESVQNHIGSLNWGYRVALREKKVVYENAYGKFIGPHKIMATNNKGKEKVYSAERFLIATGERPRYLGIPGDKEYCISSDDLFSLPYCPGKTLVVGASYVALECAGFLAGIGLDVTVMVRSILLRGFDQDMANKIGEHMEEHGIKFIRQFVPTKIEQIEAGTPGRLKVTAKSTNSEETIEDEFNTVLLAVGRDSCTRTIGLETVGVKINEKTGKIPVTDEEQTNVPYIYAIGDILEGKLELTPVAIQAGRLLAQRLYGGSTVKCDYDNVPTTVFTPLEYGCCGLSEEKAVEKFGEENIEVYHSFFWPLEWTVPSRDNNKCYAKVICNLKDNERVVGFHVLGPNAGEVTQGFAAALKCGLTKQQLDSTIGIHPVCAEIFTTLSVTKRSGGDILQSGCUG
Kind of data set: Thioredoxin reductase inhibition, colorimetric DTNB assay. As to conditions: 0.1 nM–2 µM. In kind it is biochemical. On the procedure:
The effect of the selected gold complexes on the activity of TrxR was evaluated by a colorimetric DTNB assay as previously described. […] The substituent on the nitrogen atom of the thiazoline ring ([P][AuSEt(=S)] vs. [P][AuSBu(=S)]) and the nature of the exocyclic atom ([P][AuSEt(=S)] vs. [P][AuSEt(=Se)]) seemed to influence the inhibitory effect on the enzyme. The exocyclic selenium atoms of [P][AuSEt(=Se)] seemed to disfavor the intermolecular interaction with the enzyme in relation with the peripheral thione group of [P][AuSEt(=S)].
The […] (TrxR) inhibition assays were performed using a commercial kit from Sigma-Aldrich, introducing minor modifications for a 96-well plate format. The assay is based on the reduction of DTNB (5,5′ dithiobis(2-nitrobenzoic acid)) into TNB (5-thio-2-nitrobenzoic acid) with the concomitant oxidation of NADPH, in a reaction catalyzed by TrxR [92]. The complexes were dissolved in DMSO to prepare serial concentrations in the range of 0.1 nM–2 µM. The reaction mixture (200 µL total volume) contained 11 μL assay buffer (phosphate buffer, pH 7.0 and 50 mM EDTA), 180 µL working buffer (phosphate buffer and 0.25 mM NADPH), 1 μL complexes’ solutions, 2 μL enzyme solution and 6 µL DTNB (0.1 M in DMSO). […] The formation of TNB was monitored at 412 nm with a plate spectrophotometer (Power Wave Xs, Bio-Tek).

With `CC(=O)OC[C@H]1O[C@@H]([S-])[C@H](OC(C)=O)[C@@H](OC(C)=O)[C@@H]1OC(C)=O.CCP(CC)CC.[Au+]` [Auranofin, reference compound], the “irreversible oxidation process (anodic scan)” value in the data set “Cyclic voltammetry” is on record as 1.42 V vs. SCE. The compound also returned an IC50 in data set [1] of 26 ± 10 nM.
